# In article PMC5053523, “In Vitro Antibacterial Activity of Rhodanine Derivatives against Pathogenic Clinical Isolates” (PLoS ONE, 2016):
# Where two headings read alike, the source gives them in different places.
# What was measured:
# MRSA USA300 = assay: MIC against MRSA USA300 with and without 4% human serum albumin; assay type: cell-based, Staphylococcus aureus; conditions: for antibacterial activity in the presence or absence of HSA: MRSA USA300; for MIC: Staphylococcus aureus, read-out: MIC against MRSA USA300
# Description: The minimum inhibitory concentration (MIC) and the minimum bactericidal concentration (MBC) of rhodanine compounds 1 to 7 were determined against various Gram-positive and Gram-negative pathogens (S1 Table) following the guidelines of the Clinical and Laboratory Standards Institute (CLSI)[4]. The broth microdilution technique was used, followed by subculturing on agar plates that were rhodanine—free. […] The MICs reported represent the lowest concentration of each compound necessary to inhibit bacterial growth and the MBCs represent the lowest concentration required to reduce the initial bacterial inoculum by ≥ 99.9%.
# The antimicrobial activity of rhodanine compounds in the presence of 4% human serum albumin (HSA) was tested against MRSA USA300. The MICs of rhodanine compounds and control antibiotics (vancomycin and daptomycin) were tested as described in the methods above using tryptic soy broth spiked with 4% HSA. We also synthesized and tested three more compounds, ethyl ester and amide of rhodanine 2 (Rh 8 and Rh 10, respectively) and ethyl ester of rhodanine 3 (Rh 9) to determine the influence of a carboxyl group modification toward anti-MRSA activity and human serum albumin (HSA) binding.
# Escherichia coli O157:H7 [1] = assay: MIC with/without sub-MIC colistin, Escherichia coli O157:H7; assay type: cell-based
# Description: (§1) The MIC of the rhodanines and control antibiotics, in the presence of a sub-inhibitory concentration of colistin or polymixin B nonapeptide (PMBN), against Gram-negative bacteria was evaluated as described before. The antibacterial activity of the rhodanines was further investigated against E. coli SM1411Δ acrAB, a strain that is deficient in the multidrug-resistant AcrAB efflux pump, as described before.
# Klebsiella pneumoniae [2] = assay: MIC with/without sub-MIC colistin, Klebsiella pneumoniae; assay type: cell-based; conditions: Klebsiella pneumoniae ATCC BAA 2146
# Description: as §1
# Acinetobacter baumannii [3] = assay: MIC with/without sub-MIC colistin, Acinetobacter baumannii; assay type: cell-based
# Description: as §1
# Salmonella Typhimurium = assay: MIC with/without sub-MIC colistin, Salmonella Typhimurium; assay type: cell-based; conditions: Salmonella Typhimurium ATCC 700720
# Description: as §1
# Pseudomonas aeruginosa [4] = assay: MIC with/without sub-MIC colistin, Pseudomonas aeruginosa; assay type: cell-based; conditions: Pseudomonas aeruginosa, ATCC921
# Description: as §1
# Acinetobacter baumannii [5] = assay: MIC with/without PMBN, Acinetobacter baumannii; assay type: cell-based
# Description: as §1
# Pseudomonas aeruginosa [6] = assay: MIC with/without PMBN, Pseudomonas aeruginosa; assay type: cell-based; conditions: Pseudomonas aeruginosa, ATCC9721
# Description: as §1
# Escherichia coli O157:H7 [7] = assay: MIC with/without PMBN, Escherichia coli O157:H7; assay type: cell-based
# Description: as §1
# Klebsiella pneumoniae [8] = assay: MIC with/without PMBN, Klebsiella pneumoniae; assay type: cell-based
# Description: as §1
# [9] = Escherichia coli O157:H7 ATCC 35150
# [10] = Escherichia coli O157:H7 ATCC 700728
# [11] = Acinetobacter baumannii ATCC BAA747
# [12] = Acinetobacter baumannii ATCC BAA19606
molecule,measurement,setting,value
"CCOC(=O)[C@H](Cc1ccccc1)N1C(=O)/C(=C/c2cccc(-c3ccc(Cl)c(Cl)c3)c2)SC1=S [Rh 8, Ethyl (L,Z)-2-(5-((3',4'-dichloro-[1,1'-biphenyl]-3-yl)methylene)-4-oxo-2-thioxothiazolidin-3-yl)-3-phenylpropanoate]",antibacterial activity in the presence or absence of HSA,MRSA USA300,not active
same,MIC,"MRSA USA300; 24 h, Media TSB + 4% HSA",> 64 µM
same,MIC,MRSA USA300; Media TSB,> 64 µM
"CCOC(=O)[C@H](Cc1ccccc1)N1C(=O)/C(=C/c2cccc(Cc3ccc(Cl)c(Cl)c3)c2)SC1=S [Rh 9, Ethyl (L,Z)-2-(5-(3-(3,4-dichlorobenzyl)benzylidene)-4-oxo-2-thioxothiazolidin-3-yl)-3-phenylpropanoate]",antibacterial activity in the presence or absence of HSA,MRSA USA300,not active
same,MIC,"MRSA USA300; 24 h, Media TSB + 4% HSA",> 64 µM
same,MIC,MRSA USA300; Media TSB,> 64 µM
"NC(=O)[C@H](Cc1ccccc1)N1C(=O)/C(=C/c2cccc(-c3ccc(Cl)c(Cl)c3)c2)SC1=S [Rh 10, (L,Z)-2-(5-((3',4'-dichloro-[1,1'-biphenyl]-3-yl)methylene)-4-oxo-2-thioxothiazolidin-3-yl)-3-phenylpropanamide]",antibacterial activity in the presence or absence of HSA,MRSA USA300,not active
same,MIC,"MRSA USA300; 24 h, Media TSB + 4% HSA",> 64 µM
same,MIC,MRSA USA300; Media TSB,> 64 µM
colistin [reference compound],MIC of colistin,Escherichia coli O157:H7 [1]; [9],0.125 µg/mL
same,MIC of colistin,Escherichia coli O157:H7 [1]; [10],0.0625 µg/mL
same,MIC of colistin,Klebsiella pneumoniae [2],0.5 µg/mL
same,MIC of colistin,Acinetobacter baumannii [3]; [11],0.25 µg/mL
same,MIC of colistin,Acinetobacter baumannii [3]; [12],0.5 µg/mL
same,MIC of colistin,Salmonella Typhimurium,1 µg/mL
same,MIC of colistin,Pseudomonas aeruginosa [4],1 µg/mL
"polymixin B nonapeptide [PMBN, reference compound]",MIC of PMBN,Acinetobacter baumannii [5]; [11],>128 µg/mL
same,MIC of PMBN,Acinetobacter baumannii [5]; [12],>128 µg/mL
same,MIC of PMBN,Pseudomonas aeruginosa [6],>128 µg/mL
same,MIC of PMBN,Escherichia coli O157:H7 [7]; [9],>128 µg/mL
same,MIC of PMBN,Escherichia coli O157:H7 [7]; [10],>128 µg/mL
same,MIC of PMBN,Klebsiella pneumoniae [8]; Klebsiella pneumoniae ATCC BAA 1706,>128 µg/mL
same,MIC of PMBN,Klebsiella pneumoniae [8]; Klebsiella pneumoniae ATCC BAA 2146,>128 µg/mL
